From ChEMBL document CHEMBL3991601, “The target landscape of clinical kinase drugs” (Science, 2017) come the findings set out here.

The structures appear in SMILES notation. The source made the active and inactive calls. Rule as the data show it, for most assays here: actives have a measured Kd and inactives only a lower limit. Some results are limits rather than exact numbers.

Assay [1] has as its target T1, Mitogen-activated protein kinase kinase kinase kinase 3 (Homo sapiens, UniProt Q8IVH8).
T1 sequence (Q8IVH8 whole entry): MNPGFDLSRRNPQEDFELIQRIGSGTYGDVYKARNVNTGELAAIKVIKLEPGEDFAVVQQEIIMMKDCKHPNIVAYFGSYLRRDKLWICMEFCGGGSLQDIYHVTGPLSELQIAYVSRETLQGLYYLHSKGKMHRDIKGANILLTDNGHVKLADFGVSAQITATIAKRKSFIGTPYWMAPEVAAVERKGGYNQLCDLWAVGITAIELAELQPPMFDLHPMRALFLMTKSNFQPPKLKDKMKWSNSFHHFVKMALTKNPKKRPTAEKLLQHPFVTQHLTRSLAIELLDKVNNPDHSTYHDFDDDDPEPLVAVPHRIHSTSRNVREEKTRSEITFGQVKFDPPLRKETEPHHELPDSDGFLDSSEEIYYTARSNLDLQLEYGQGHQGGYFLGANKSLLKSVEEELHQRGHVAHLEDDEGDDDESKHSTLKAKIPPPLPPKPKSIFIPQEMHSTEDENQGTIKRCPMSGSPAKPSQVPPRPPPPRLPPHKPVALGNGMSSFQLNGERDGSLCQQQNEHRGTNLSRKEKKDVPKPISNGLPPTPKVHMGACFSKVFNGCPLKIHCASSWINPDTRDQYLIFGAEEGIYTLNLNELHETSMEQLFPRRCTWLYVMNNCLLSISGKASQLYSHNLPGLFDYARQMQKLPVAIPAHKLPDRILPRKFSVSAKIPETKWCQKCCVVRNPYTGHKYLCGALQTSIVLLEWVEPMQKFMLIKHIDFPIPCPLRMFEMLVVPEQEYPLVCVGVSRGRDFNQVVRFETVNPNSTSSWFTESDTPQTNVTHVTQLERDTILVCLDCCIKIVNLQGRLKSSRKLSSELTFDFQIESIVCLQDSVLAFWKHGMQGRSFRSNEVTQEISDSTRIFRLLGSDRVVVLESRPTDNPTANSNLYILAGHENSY

Assay [2] deals with T2, Phenylalanine--tRNA ligase beta subunit (Homo sapiens, UniProt Q9NSD9).
T2 sequence (Q9NSD9 whole entry): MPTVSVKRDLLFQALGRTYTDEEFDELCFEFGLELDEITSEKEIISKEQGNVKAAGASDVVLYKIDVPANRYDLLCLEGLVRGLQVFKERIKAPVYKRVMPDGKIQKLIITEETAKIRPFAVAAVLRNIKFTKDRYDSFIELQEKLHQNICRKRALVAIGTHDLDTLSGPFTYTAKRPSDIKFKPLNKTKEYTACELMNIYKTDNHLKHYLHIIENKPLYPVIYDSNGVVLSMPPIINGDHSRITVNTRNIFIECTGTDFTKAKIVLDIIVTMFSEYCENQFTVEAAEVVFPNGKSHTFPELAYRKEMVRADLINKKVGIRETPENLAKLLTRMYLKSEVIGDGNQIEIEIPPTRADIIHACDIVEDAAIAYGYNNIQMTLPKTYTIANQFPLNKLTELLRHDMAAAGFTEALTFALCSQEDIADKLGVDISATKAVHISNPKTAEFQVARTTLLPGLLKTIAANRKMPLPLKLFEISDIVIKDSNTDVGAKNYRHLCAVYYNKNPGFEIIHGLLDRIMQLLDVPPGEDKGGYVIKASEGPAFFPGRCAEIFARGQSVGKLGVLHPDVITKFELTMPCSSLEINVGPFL

Assay [3] has as its target Epithelial discoidin domain-containing receptor 1 (Homo sapiens, UniProt Q08345).
Assay [4] deals with Cyclin-dependent kinase 4 (Homo sapiens, UniProt P11802).
Chain of Cyclin-dependent kinase 4 (P11802 whole entry): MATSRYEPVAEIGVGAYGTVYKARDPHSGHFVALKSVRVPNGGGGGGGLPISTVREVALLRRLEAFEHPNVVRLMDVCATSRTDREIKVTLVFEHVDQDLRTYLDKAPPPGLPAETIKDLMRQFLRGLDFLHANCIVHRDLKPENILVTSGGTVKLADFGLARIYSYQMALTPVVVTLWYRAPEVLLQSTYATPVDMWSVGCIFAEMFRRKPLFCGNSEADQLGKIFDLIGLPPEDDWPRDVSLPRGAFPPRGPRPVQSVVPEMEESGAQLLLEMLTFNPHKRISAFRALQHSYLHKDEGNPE
The target of assay [5] is Calcium/calmodulin-dependent protein kinase type II subunit delta (Homo sapiens, UniProt Q13557).
Chain of Calcium/calmodulin-dependent protein kinase type II subunit delta (Q13557 whole entry): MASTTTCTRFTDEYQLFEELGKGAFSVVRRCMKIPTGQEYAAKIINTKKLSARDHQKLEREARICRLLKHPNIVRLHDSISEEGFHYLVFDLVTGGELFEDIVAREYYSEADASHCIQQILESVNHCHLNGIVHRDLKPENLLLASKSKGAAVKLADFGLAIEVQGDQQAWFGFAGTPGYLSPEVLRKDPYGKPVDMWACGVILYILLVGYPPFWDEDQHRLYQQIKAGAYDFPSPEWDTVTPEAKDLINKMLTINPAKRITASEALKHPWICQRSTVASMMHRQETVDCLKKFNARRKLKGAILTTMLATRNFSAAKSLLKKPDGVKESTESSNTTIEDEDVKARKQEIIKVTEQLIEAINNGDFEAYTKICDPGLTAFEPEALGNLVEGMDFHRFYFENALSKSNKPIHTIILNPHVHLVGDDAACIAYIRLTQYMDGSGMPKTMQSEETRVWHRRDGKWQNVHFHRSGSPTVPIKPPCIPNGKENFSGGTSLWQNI
Assay [6] addresses Tyrosine-protein kinase Yes (Homo sapiens, UniProt P07947).
A further assay has as its target Wee1-like protein kinase (Homo sapiens, UniProt P30291).
A further assay addresses Activated CDC42 kinase 1 (Homo sapiens, UniProt Q07912).
Assay [7] addresses T3, Acyl-CoA dehydrogenase family member 10 (Homo sapiens, UniProt Q6JQN1).
T3 sequence (Q6JQN1 whole entry): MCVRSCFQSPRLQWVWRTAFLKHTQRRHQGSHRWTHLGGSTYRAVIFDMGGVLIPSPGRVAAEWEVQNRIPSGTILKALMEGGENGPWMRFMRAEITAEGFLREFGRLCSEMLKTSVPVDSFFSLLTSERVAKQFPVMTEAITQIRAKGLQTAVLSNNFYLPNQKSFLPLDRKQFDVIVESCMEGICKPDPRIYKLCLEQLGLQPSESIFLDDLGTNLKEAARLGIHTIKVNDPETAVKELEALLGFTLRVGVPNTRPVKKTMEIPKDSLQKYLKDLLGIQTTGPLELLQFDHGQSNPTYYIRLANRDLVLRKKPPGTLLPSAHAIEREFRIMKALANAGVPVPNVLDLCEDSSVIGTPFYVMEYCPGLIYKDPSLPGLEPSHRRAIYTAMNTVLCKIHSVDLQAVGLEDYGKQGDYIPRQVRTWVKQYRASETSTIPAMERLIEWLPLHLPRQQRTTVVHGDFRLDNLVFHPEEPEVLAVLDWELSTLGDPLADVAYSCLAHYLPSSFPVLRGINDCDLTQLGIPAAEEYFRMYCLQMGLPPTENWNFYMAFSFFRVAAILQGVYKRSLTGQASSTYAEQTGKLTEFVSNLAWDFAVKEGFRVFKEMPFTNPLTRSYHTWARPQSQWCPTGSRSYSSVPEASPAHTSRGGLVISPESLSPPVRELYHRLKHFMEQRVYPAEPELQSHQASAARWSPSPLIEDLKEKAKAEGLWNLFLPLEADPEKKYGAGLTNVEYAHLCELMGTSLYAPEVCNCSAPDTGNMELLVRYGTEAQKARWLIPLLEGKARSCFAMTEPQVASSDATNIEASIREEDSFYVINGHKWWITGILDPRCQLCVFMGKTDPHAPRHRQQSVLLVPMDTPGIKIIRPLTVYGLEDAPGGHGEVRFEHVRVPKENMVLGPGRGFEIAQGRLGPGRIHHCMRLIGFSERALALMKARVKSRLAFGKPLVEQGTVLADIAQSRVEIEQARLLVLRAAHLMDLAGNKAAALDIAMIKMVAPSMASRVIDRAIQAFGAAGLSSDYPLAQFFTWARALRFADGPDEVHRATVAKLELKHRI
Also: in the data inactive means no Kd found up to 30 µM.

Chain of Tyrosine-protein kinase Yes (P07947 whole entry): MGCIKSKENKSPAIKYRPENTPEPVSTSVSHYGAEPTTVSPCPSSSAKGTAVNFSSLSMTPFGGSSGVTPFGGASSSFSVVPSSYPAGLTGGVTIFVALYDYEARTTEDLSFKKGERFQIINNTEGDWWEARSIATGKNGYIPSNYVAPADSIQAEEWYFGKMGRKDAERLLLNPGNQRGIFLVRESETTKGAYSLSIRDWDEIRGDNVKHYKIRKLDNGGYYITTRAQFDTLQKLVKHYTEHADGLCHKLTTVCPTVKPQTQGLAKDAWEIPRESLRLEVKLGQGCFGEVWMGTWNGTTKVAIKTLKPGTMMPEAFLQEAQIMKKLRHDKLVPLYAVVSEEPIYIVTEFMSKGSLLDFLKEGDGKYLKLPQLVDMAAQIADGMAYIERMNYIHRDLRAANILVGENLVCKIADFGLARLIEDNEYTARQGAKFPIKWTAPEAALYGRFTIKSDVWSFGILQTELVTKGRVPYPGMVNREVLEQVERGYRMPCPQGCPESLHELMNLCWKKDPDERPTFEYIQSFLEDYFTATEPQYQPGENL
Chain of Wee1-like protein kinase (P30291 whole entry): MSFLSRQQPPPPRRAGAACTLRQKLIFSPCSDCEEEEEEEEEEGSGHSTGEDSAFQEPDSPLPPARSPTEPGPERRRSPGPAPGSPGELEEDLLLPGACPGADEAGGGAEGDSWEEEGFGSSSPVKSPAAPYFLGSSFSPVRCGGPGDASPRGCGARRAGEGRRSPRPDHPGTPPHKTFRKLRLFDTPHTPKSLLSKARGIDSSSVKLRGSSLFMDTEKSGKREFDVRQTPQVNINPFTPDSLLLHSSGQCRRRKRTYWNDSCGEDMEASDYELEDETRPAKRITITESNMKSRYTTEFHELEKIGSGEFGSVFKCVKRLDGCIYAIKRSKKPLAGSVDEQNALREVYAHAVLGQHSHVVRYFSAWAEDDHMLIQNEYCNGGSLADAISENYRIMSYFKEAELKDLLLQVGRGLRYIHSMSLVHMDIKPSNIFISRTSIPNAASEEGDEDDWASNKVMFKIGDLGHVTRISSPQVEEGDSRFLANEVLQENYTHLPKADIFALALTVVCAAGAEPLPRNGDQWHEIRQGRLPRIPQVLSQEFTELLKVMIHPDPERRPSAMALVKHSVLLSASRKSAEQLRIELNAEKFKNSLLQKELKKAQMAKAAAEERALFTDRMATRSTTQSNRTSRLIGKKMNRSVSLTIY
Chain of Activated CDC42 kinase 1 (Q07912 whole entry): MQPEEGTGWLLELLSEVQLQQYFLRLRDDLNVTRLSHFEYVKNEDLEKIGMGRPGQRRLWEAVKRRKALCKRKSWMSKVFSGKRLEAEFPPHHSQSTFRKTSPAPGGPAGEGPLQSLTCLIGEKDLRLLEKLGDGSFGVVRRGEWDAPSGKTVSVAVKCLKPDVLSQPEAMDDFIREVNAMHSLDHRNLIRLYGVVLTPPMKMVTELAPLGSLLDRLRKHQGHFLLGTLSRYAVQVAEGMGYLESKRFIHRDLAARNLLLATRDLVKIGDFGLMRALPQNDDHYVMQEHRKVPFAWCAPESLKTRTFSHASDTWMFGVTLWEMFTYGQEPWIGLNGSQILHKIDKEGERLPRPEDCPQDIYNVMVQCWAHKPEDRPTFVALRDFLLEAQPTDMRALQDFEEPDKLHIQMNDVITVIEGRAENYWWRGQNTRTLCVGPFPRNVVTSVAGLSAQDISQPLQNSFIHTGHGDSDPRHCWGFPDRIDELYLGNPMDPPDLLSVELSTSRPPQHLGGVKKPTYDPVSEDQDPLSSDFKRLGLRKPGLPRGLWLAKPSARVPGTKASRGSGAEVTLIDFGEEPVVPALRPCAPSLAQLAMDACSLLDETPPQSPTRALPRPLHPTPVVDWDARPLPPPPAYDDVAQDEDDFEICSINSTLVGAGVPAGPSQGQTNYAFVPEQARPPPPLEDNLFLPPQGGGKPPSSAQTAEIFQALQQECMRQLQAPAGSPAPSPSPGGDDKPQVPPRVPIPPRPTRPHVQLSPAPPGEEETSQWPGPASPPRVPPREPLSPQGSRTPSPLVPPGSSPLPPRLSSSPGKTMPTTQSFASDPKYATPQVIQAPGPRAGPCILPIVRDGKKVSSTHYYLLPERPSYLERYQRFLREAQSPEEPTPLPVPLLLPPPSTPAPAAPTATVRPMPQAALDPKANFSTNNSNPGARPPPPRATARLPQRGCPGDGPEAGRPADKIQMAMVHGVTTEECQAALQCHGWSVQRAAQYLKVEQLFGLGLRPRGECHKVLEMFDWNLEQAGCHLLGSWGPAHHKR
Chain of Epithelial discoidin domain-containing receptor 1 (Q08345 whole entry, the tested form may be a part): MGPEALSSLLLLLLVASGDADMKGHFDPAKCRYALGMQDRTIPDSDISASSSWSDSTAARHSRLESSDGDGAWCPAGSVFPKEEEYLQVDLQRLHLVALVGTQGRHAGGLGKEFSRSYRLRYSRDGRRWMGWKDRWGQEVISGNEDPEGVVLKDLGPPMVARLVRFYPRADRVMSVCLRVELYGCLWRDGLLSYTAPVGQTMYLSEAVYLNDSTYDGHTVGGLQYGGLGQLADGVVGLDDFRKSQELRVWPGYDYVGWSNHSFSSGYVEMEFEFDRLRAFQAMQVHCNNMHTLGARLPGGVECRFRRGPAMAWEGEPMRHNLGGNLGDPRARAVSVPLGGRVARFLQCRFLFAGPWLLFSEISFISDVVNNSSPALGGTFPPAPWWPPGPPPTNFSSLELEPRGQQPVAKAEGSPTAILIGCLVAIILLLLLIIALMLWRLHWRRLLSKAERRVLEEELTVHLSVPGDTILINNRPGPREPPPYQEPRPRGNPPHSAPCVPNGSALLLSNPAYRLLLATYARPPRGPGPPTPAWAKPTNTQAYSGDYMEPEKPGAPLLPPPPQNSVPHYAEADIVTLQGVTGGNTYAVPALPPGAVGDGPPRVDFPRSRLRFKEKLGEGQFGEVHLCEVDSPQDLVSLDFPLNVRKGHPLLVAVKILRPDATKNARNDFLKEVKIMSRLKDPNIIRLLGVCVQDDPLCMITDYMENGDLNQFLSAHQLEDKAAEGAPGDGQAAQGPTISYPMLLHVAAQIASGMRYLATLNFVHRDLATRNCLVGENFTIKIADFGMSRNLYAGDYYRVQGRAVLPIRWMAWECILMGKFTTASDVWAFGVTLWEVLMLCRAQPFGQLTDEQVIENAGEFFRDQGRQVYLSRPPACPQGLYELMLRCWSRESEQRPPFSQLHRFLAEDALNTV

Turning to `Cc1cc(Nc2nc(N[C@@H](C)c3ncc(F)cn3)ncc2Cl)n[nH]1` [AZD-1480], the Kd in assay [1], in assay [2], in [3], in assay [4], in [5] and in assay [6] was > 30 µM (inactive) throughout. Besides, the Kd (in general, the concentration at which binding is half-saturated) at Wee1-like protein kinase was > 30 µM (inactive); on Activated CDC42 kinase 1, 0.515 µM (active); in [7], > 30 µM (inactive).
As to `Cc1ccc(C(=O)Nc2ccc(Oc3cc4cnn(C)c4cc3-c3cn[nH]c3)c(F)c2)c(=O)n1-c1ccc(F)cc1` [MERESTINIB], the Kd in assay [1] is > 30 µM (inactive); in assay [2], > 30 µM (inactive); in assay [3], 0.174 µM (active); in assay [4] it was > 30 µM (inactive); in assay [5], > 30 µM (inactive); in [6] it was > 30 µM (inactive). Moreover, the Kd (at Wee1-like protein kinase; on Activated CDC42 kinase 1; in assay [7]) was > 30 µM (inactive) each time.
As for `C#Cc1cccc(Nc2ncnc3cc4c(cc23)OCCOCCOCCO4)c1` [ICOTINIB], the Kd in assay [1], in assay [2], in assay [3], in assay [4], in assay [5] and in assay [6] was > 30 µM (inactive) in each case. Besides, the Kd (on Wee1-like protein kinase; on Activated CDC42 kinase 1; in assay [7]) was > 30 µM (inactive) in each case.
As to `COc1cc(F)c(F)c(Nc2ccc(I)cc2F)c1NS(=O)(=O)C1(C[C@H](O)CO)CC1` [REFAMETINIB], the Kd in [1], in assay [2], in assay [3], in assay [4], in [5] and in [6] was > 30 µM (inactive) in each case. In addition, the Kd (on Wee1-like protein kinase; at Activated CDC42 kinase 1; in assay [7]) was > 30 µM (inactive) in each case.
Turning to `CCOc1ccn(-c2ccc(F)cc2)c(=O)c1C(=O)Nc1ccc(Oc2ccnc(N)c2Cl)c(F)c1` [BMS-777607], the Kd in [1] was > 30 µM (inactive); in assay [2] it was > 30 µM (inactive); in assay [3], 0.039 µM (active); in [4] it was > 30 µM (inactive); in [5], > 30 µM (inactive); in [6], > 30 µM (inactive). For the same compound, the Kd (at Wee1-like protein kinase; at Activated CDC42 kinase 1; in [7]) was > 30 µM (inactive) each time.
`O[C@H]1CC[C@H](Nc2ncc3nc(Nc4c(F)cc(F)cc4F)n([C@H]4CCOC4)c3n2)CC1` [TANZISERTIB]: the Kd in assay [1], in [2], in [3], in [4], in assay [5] and in [6] was > 30 µM (inactive) in each case. Moreover, the Kd (at Wee1-like protein kinase; at Activated CDC42 kinase 1; in [7]) was > 30 µM (inactive) throughout.
For the compound `CNC(=O)c1cccc(-c2ccc3c(N4CCOC[C@@H]4C)nc(N4CCOC[C@@H]4C)nc3n2)c1` [VISTUSERTIB], the Kd (in assay [1]; in [2]; in assay [4]; in [5]; in [6]; at Wee1-like protein kinase) was > 30 µM (inactive) each time. The Kd (on Activated CDC42 kinase 1; in [7]) was > 30 µM (inactive) in each case.
Turning to `CCN1CCN(Cc2ccc(Nc3ncc(F)c(-c4cc(F)c5nc(C)n(C(C)C)c5c4)n3)nc2)CC1` [ABEMACICLIB], the Kd in assay [1] was > 30 µM (inactive); in [2], > 30 µM (inactive); in assay [3] it was > 30 µM (inactive); in assay [5], 0.019 µM (active); in [6], > 30 µM (inactive); at Wee1-like protein kinase, > 30 µM (inactive). Also, the Kd at Activated CDC42 kinase 1 was > 30 µM (inactive).
Take `O=c1[nH]c([C@@H]2CCCN2)nc2c1oc1ccc(Cl)cc12`: the Kd (in assay [1]; in [3]; in [4]; in assay [5]; in assay [6]; at Wee1-like protein kinase) was > 30 µM (inactive) each time. In addition, the Kd (on Activated CDC42 kinase 1; in assay [7]) was > 30 µM (inactive) throughout.
Take `COc1cc2ncnc(Nc3ccc(O)cc3)c2cc1OC` [WHI-P131]: the Kd in assay [1], in [2], in assay [3], in [4], in [5] and in assay [6] was > 30 µM (inactive) throughout. Also, the Kd at Wee1-like protein kinase and at Activated CDC42 kinase 1 was > 30 µM (inactive) each time.
In the case of `C[C@@H]1COC(Nc2ccc3ncnc(Nc4ccc(OCc5nccs5)c(Cl)c4)c3c2)=N1` [VARLITINIB], the Kd in assay [1] was > 30 µM (inactive); in [2], > 30 µM (inactive); in assay [3], > 30 µM (inactive); in assay [4] it was > 30 µM (inactive); in [5] it was > 30 µM (inactive); in [6], 0.321 µM (active). In addition, the Kd at Wee1-like protein kinase and at Activated CDC42 kinase 1 was > 30 µM (inactive) throughout.
In the case of `C[C@]1(O)C[C@@H](c2nc(-c3ccc4ccc(-c5ccccc5)nc4c3)c3c(N)nccn32)C1` [LINSITINIB], the Kd in [1] was 15.4 µM (active); in assay [2], > 30 µM (inactive); in assay [3], > 30 µM (inactive); in [4], > 30 µM (inactive); in assay [6] it was > 30 µM (inactive); at Wee1-like protein kinase, > 30 µM (inactive). The Kd (on Activated CDC42 kinase 1; in [7]) was > 30 µM (inactive) throughout.
